From patent US9890327B2, “Phosphorescent transition metal complex, its preparation and use” (City University of Hong Kong, priority 2015, dated 2018)

What was measured:
[1] = degassed CH3CN solution, λex=355 nm; cited from earlier work
[2] = Photophysical properties (emission, lifetime, luminescence quantum yield); format: physicochemical; settings: for Φem / λem / τo: 298 K
Procedure: ^1H NMR spectra were recorded on a Bruker 400 MHz AVANCE III spectrometer at 298 K using deuterated solvents. Chemical shifts (8, ppm) were reported relative to tetramethylsilane (TMS). Positive-ion electrospray ionization (ESI) mass spectra were recorded on a Perkin Elmer Sciex API 365 mass spectrometer at 298 K. IR spectra of the samples in KBr pellets were recorded in the range of 4000-400 cm^−1 using a Perkin Elmer FTIR-1600 spectrophotometer. Electronic absorption and steady-state emission spectra were recorded on a Hewlett-Packard 8453 diode array spectrophotometer and a SPEX Fluorolog 3-TCSPC spectrofluorometer, respectively. Emission lifetimes were measured in the Fast MCS or TCSPC mode with a NanoLED N-375 as the excitation source. Unless specified otherwise, all solutions for photophysical studies were degassed with no fewer than four successive freeze-pump-thaw cycles and stored in a 10 cm^3 round bottomed flask equipped with a side-arm 1-cm fluorescence cuvette and sealed from the atmosphere by a Rotaflo HP6/6 quick-release Teflon stopper. Luminescence quantum yields were measured by the optically dilute method (Demas, J N., Crosby, G A J., Phys. Chem., 1971, 75:991-1024) using a degassed CH3CN solution of [Re(phen)(CO)3(pyridine)](CF3SO3) (phen=1,10-phenanthroline) (φem=0.18, λex=355 nm) as the standard solution.
The photophysical data are summarized in Table 2, and the emission spectra of metal complex of Formula (IV) in CH3CN and aqueous buffer solutions at 298 K are shown in FIG. 2.

[3] = Reaction kinetics with H2O2 under pseudo first-order conditions, UV-Visible spectroscopy; format: physicochemical; settings: 298 K
Procedure: Kinetics experiments for the reactions of metal complex of Formula (IV) with H2O2 were performed under pseudo first-order conditions. Metal complex of Formula (IV) (10 μM) was reacted with H2O2 in a 1:100, 1:200, 1:400, or 1:800 molar ratio in potassium phosphate buffer (50 mM, pH 7.4)/DMSO (99:1, v/v) at 298 K. The reactions were monitored by UV-Visible spectroscopy at ca. 343 nm. The kobs values were determined by fitting the experimental data to the first-order rate equation, [A]=[A]oe^−kt. The k2 value was determined by plotting kobs versus [H2O2] and the rate constant corresponds to the determined slope.
The change in absorption spectrum of metal complex of Formula (IV) (10 μM) in aerated potassium phosphate buffer (50 mM, pH 7.4)/DMSO (99:1, v/v) in the presence of H2O2(1 mM) at 298 K is shown in FIG. 3. […] The pseudo first-order rate constant (kobs) of reaction of metal complex of Formula (IV) (10 μM) was determined to be (0.6375±0.0092)×10^−3 s^−1. The plot of kobs of reactions of metal complex of Formula (IV) with H2O2 against various concentrations of H2O2 is shown in FIG. 4.

[4] = H2O2-sensing emission titration; format: physicochemical; settings: complex 10 μM, buffer pH 7.4/DMSO (99:1)
Procedure: (§1) In H2O2-sensing studies, various amounts of H2O2 (25 mM; 0-20 μL) were added to a series of solutions containing metal complex of Formula (IV) (10 μM) in potassium phosphate buffer (50 mM, pH 7.4)/DMSO (99:1, v/v). The reaction mixtures were incubated in the dark at room temperature for 1.5 h, and their emission spectra were then measured. The limit of detection was determined according to the equation, […]. In the selectivity studies, different reactive oxygen species (100 μM) were added into a series of solutions containing metal complex of Formula (IV) (10 μM) in potassium phosphate buffer (50 mM, pH 7.4)/DMSO (99:1, v/v). The reaction mixtures were incubated in the dark at room temperature for 1.5 h, and their emission spectra were then measured. H2O2 was diluted from a stabilized 30% aqueous solution. TBHP was diluted from a 70% aqueous solution. NOC-7, KO2, and NaOCl were used as the sources of NO, O2^−, and ClO^−, respectively. Singlet oxygen (^1O2) was generated by the reaction of NaOCl and H2O2(Held, A M. Et al., Am. Chem. Soc., 1978, 100:5732-5740; Aubry, J M., J. Am. Chem. Soc., 1985, 107:5844-5849). Hydroxyl radicals (OH.) were generated by the reaction of ammonium iron(II) sulfate hexahydrate and H2O2.
The reactivity of metal complex of Formula (IV) with H2O2 was examined by emission titrations and the emission titration traces and corresponding titration curve are shown in FIGS. 5 and 6, respectively. […] The detection limit was calculated to be 1.84 μM.

[5] = Selectivity study: emission response toward reactive oxygen species; format: physicochemical; settings: complex 10 μM, buffer pH 7.4/DMSO (99:1), 1.5 h
Procedure: as §1, with “H2O2. […]” for “H2O2.”

HeLa cells [6] = assay: Cytotoxicity by MTT assay; format: cell-based
Procedure: To confirm the suitability of the possibility of metal complex of Formula (IV) as phosphorescent sensor for intracellular H2O2, the cytotoxicity of metal complex of Formula (IV) was examined by the MTT assay.
HeLa cells were cultured in growth medium in a humidified chamber at 37° C. under a 5% CO2 atmosphere. The cells were subcultured every 2-3 days. HeLa cells were seeded in a 96-well flat-bottomed microplate (10,000 cells/well) in a growth medium (100 μL) and incubated at 37° C. under a 5% CO2 atmosphere for 24 h. […] The wells containing untreated cells were used as blank controls. […] Then MTT in PBS (5 mg/mL; 10 μL) was added to each well. The microplate was then incubated for another 4 h. The medium was removed and DMSO (200 μL) was added to each well. The microplate was further incubated for 10 min. The absorbance of the solutions at 570 nm was measured with a SPECTRAmax 340 microplate reader (Molecular Devices Corp., Sunnyvale, Calif.). Percentage cell survival was calculated relative to the absorbance of the control for each treatment. The viability of untreated cells was assumed to be 100%.

HeLa cells [7] = assay: Live-cell imaging by laser-scanning confocal microscopy (uptake, mitochondrial co-staining, intracellular H2O2); format: cell-based
Procedure: For co-staining experiments, HeLa cells in growth medium were seeded on a sterilized coverslip in a 35-mm tissue culture dish and grown at 37° C. under a 5% CO2 atmosphere for 48 h. The medium was removed and the cells were incubated with metal complex of Formula (IV) (10 μM) in growth medium/DMSO (99:1, v/v) for 40 min and then with MitoTracker Deep Red FM (100 nM) in a FBS-free medium for another 20 min. Prior to imaging, the cells were washed with PBS (1 mL×3), mounted onto a sterilized glass slide, and then imaged using a Leica TCS SPE confocal microscope with an oil immersion 63× objective. The excitation wavelength for metal complex of Formula (IV) was 405 nm and that of MitoTracker Deep Red FM was 633 nm. The Pearson's coefficient was determined by the program Image J (version 1.45k). For imaging of intracellular H2O2, HeLa cells in growth medium were seeded on a sterilized coverslip in a 35-mm tissue culture dish and grown at 37° C. under a 5% CO2 atmosphere for 48 h. The medium was removed and the cells were incubated with metal complex of Formula (IV) (10 μM) in growth medium/DMSO (99:1, v/v) for 1 h. The stained cells were washed with PBS (1 mL×3) and further treated with H2O2 (1 mM) in growth medium for another 2 h. Prior to imaging, the cells were washed with PBS (1 mL×3), mounted onto a sterilized glass slide, and then imaged using a Leica TCS SPE confocal microscope with an oil immersion 63× objective.
The use of metal complex of Formula (IV) for intracellular H2O2-sensing was evaluated by laser-scanning confocal microscopy. […] (FIG. 10D to 10F). This implies that the internalization of metal complex of Formula (IV) involved an energy-requiring pathway such as endocytosis.
With reference to FIG. 11A to 11C, the metal complex of Formula (IV) was localized in the mitochondria (Pearson's coefficient: 0.99).

[8] = Potassium phosphate buffer (50 mM, pH 7.4)/MeOH (7:3, v/v)

Row | Compound | φem of standard solution [1] | Φem ([2]; CH3CN) | λem ([2]; CH3CN) [nm] | τo ([2]; CH3CN) [μs] | Φem [2, 8] | λem [2, 8] [nm] | τo [2, 8] [μs] | luminescence quantum yield ([2]; upon irradiation, very weak MLCT emission) | pseudo first-order rate constant (kobs) ([3]; complex 10 μM, H2O2 (1 mM), aerated potassium phosphate buffer (50 mM, pH 7.4)/DMSO (99:1, v/v)) | second-order rate constant ([3]; slope of kobs versus [H2O2], potassium phosphate buffer (50 mM, pH 7.4)/DMSO (99:1, v/v)) [M⁻¹ s⁻¹] | emission enhancement (I/I0) ([4]; [H2O2]=250 μM, 1.5 h) | H2O2 concentration range of good linearity of emission intensity enhancement [4] [µM] | detection limit for H2O2 [4] [µM] | emission response toward H2O2 ([5]; H2O2 100 μM) | emission response toward TBHP, 1O2, OH., NO, O2−, ClO− ([5]; ROS 100 μM) | cytotoxic effect under imaging experiment conditions (HeLa cells [6]; 10 μM, 1 h) | IC50 (HeLa cells [6]; HeLa cells, 48 h, MTT) [µM] | emission intensity of the cells at lowered incubation temperature (HeLa cells [7]; HeLa cells, 10 μM, 1 h, 4° C.) | intracellular emission (HeLa cells [7]; HeLa cells, 10 μM, 1 h, 37° C.) | intracellular emission intensity after incubation with H2O2 (HeLa cells [7]; complex-stained HeLa cells, H2O2 1 mM, 2 h)
1 | O=S(=O)([O-])C(F)(F)F.[C-]#[O+].[C-]#[O+].[C-]#[O+].[Re+].c1ccncc1.c1cnc2c(c1)ccc1cccnc12 [[Re(phen)(CO)3(pyridine)](CF3SO3)] | 0.18 |  |  |  |  |  |  |  |  |  |  |  |  |  |  |  |  |  |  | 
2 | [Re(Ph2-phen)(CO)3(py-3-C(═O)C(═O)C6H3(NH2)(NO2)](CF3SO3) [Metal complex of Formula (IV)] |  | 0.007 | 554 | 4.83 | 0.005 | 557 | 3.14 | < 0.007 | (0.6375±0.0092)×10^−3 s^−1 | 0.7301 ± 0.0134 | 20.6 | 0 to 50 | 1.84 | significant emission enhancement | did not induce any significant changes in the emission intensity | would not cause significant cytotoxic effect | 3.34 ± 0.05 | significantly reduced | weak intracellular emission in the perinuclear region | significantly enhanced
